Laboratory results as given in ChEMBL document CHEMBL3045621, “Synthesis and Structure-activity Relationships of Herbicidal Thiophene Sulfonylurea Compounds” (J Pestic Sci, 1997).

Experiments:
Oryza sativa = assay: Toxicity in two leaf stage of Oryza sativa var. Nihonbare (rice) assessed as dose required to selectivity to Oryza sativa; format: organism-based; settings: in vivo
[1] = tested on: Schoenoplectiella juncoides; assay: Herbicidal activity against Schoenoplectiella juncoides assessed as dose required to cause sufficient herbicidal activity after 5 to 7 days; format: functional
Echinochloa oryzicola = assay: Herbicidal activity against Echinochloa oryzicola assessed as dose required to cause sufficient herbicidal activity; format: functional
Sagittaria pygmaea = assay: Herbicidal activity against Sagittaria pygmaea assessed as dose required to cause sufficient herbicidal activity after 5 to 7 days; format: functional

SMILES | MED (Oryza sativa) [g/acre] | MED [1] [g/acre] | MED (Echinochloa oryzicola) [g/acre] | MED (Sagittaria pygmaea) [g/acre]
COc1cc(OCC(F)(F)F)nc(NC(=O)NS(=O)(=O)c2sccc2COCCF)n1 | 5 | 10 | 20 | 2.5
COc1cc(OC)nc(NC(=O)NS(=O)(=O)c2sccc2COCC(F)(F)C(F)(F)C(F)(F)F)n1 | 0.625 | 20 | 10 | 10
COc1cc(OC)nc(NC(=O)NS(=O)(=O)c2sccc2Cn2cccn2)n1 | 0.625 | 1.25 | 5 | –
COc1cc(OC)nc(NC(=O)NS(=O)(=O)c2sccc2COc2cccc(C(F)(F)F)c2)n1 | 0.625 | 20 | 5 | 20
COc1cc(OC)nc(NC(=O)NS(=O)(=O)c2sccc2CC#N)n1 | 0.0391 | 0.156 | 0.625 | –
COc1cc(OC)nc(NC(=O)NS(=O)(=O)c2sccc2COCC(F)(F)C(F)(F)F)n1 | 0.625 | 1.25 | 5 | 2.5
CCN(C)Cc1ccsc1S(=O)(=O)NC(=O)Nc1nc(OC)cc(OC)n1 | 20 | 10 | 20 | 5
CNC(=O)Cc1ccsc1S(=O)(=O)NC(=O)Nc1nc(OC)cc(OC)n1 | 1.25 | 0.625 | – | 0.313
COc1nc(NC(=O)NS(=O)(=O)Cc2sccc2COCCF)nc(OC)n1 | < 2.5 | 20 | 80 | 20
COc1nc(NC(=O)NS(=O)(=O)c2ccoc2COCCF)nc(OC)n1 | 0.313 | 0.625 | 1.25 | 0.156
COc1cc(OC)nc(NC(=O)NS(=O)(=O)c2sccc2COCC(F)F)n1 | 0.312 | 0.0781 | 1.25 | 0.0391
Cc1cc(C)nc(NC(=O)NS(=O)(=O)c2sccc2COCCF)n1 | 0.156 | – | – | –
COc1cc(OC)nc(NC(=O)NS(=O)(=O)c2ccsc2COCCF)n1 | 0.313 | 0.0781 | – | –
CCN(CC)Cc1ccsc1S(=O)(=O)NC(=O)Nc1nc(OC)cc(OC)n1 | 0.625 | – | 5 | –
COc1nc(NC(=O)NS(=O)(=O)c2ccc3ccccc3c2COCCF)nc(OC)n1 | < 2.5 | <2.5 | <2.5 | <2.5
COc1cc(OC)nc(NC(=O)NS(=O)(=O)c2sccc2COCC2CCCO2)n1 (stereo not given) | 0.625 | 5 | 5 | 10
COc1cc(OC)nc(NC(=O)NS(=O)(=O)c2cscc2COCCF)n1 | 0.625 | 0.156 | – | 0.0781
C=CCOCc1ccsc1S(=O)(=O)NC(=O)Nc1nc(OC)cc(OC)n1 | 0.313 | 0.156 | 0.625 | 0.156
COc1cc(OC)nc(NC(=O)NS(=O)(=O)c2sccc2COCCCF)n1 | 0.625 | 0.313 | 0.313 | 0.156
COc1cc(OC)nc(NC(=O)NS(=O)(=O)c2sccc2COC(C)C(F)(F)F)n1 (stereo not given) | 1.25 | 2.5 | 5 | –
CCOCc1ccsc1S(=O)(=O)NC(=O)Nc1nc(OC)cc(OC)n1 | 0.156 | 0.0391 | 0.313 | 0.0391
COc1cc(OC)nc(NC(=O)NS(=O)(=O)c2sccc2COCC(F)(F)Cl)n1 | 1.25 | 2.5 | 5 | –
COC(=O)Cc1ccsc1S(=O)(=O)NC(=O)Nc1nc(OC)cc(OC)n1 | 0.156 | 1.25 | 1.25 | 0.313
COc1cc(OC)nc(NC(=O)NS(=O)(=O)c2sccc2CNC(=O)CCl)n1 | 5 | 10 | 10 | 5
COc1cc(OC)nc(NC(=O)NS(=O)(=O)c2sccc2C[N+](=O)[O-])n1 | 0.625 | – | – | –
COCCOCc1ccsc1S(=O)(=O)NC(=O)Nc1nc(OC)cc(OC)n1 | 0.156 | 0.313 | – | 0.313
COc1cc(OC)nc(NC(=O)NS(=O)(=O)c2sccc2COCCCCl)n1 | 0.313 | – | 1.25 | –

SMILES | MED (Oryza sativa) [g/acre] | MED [1] [g/acre] | MED (Echinochloa oryzicola) [g/acre] | MED (Sagittaria pygmaea) [g/acre]
COc1nc(NC(=O)NS(=O)(=O)c2csnc2COCCF)nc(OC)n1 | > 0.313 | 1.25 | 5 | 0.313
COc1cc(OC)nc(NC(=O)NS(=O)(=O)c2sccc2COC(CF)CF)n1 | 0.625 | – | 1.25 | 0.313
COc1cc(Cl)nc(NC(=O)NS(=O)(=O)c2sccc2COCCF)n1 | 0.625 | 0.156 | 0.156 | 0.313
C#CCOCc1ccsc1S(=O)(=O)NC(=O)Nc1nc(OC)cc(OC)n1 | 0.156 | 0.0781 | 0.625 | 0.0391
COc1cc(OC)nc(NC(=O)NS(=O)(=O)c2sccc2COc2ccccc2)n1 | 0.625 | 1.25 | 2.5 | 0.313
COc1cc(OC)nc(NC(=O)NS(=O)(=O)c2sccc2COC(C)(C)C(F)(F)F)n1 | 2.5 | 1.25 | 20 | 2.5
COc1cc(OC)nc(NC(=O)NS(=O)(=O)c2sccc2COCCF)n1 | 0.0781 | 0.0391 | 0.313 | 0.0391
COc1cc(OC)nc(NC(=O)NS(=O)(=O)c2sccc2CSC#N)n1 | 0.313 | 1.25 | 1.25 | 0.625
COC(=O)NCc1ccsc1S(=O)(=O)NC(=O)Nc1nc(OC)cc(OC)n1 | 2.5 | 1.25 | 20 | 0.313
O=C(Nc1nc(OC(F)F)cc(OC(F)F)n1)NS(=O)(=O)c1sccc1COCCF | 5 | 5 | 5 | 5
COc1cc(OC)nc(NC(=O)NS(=O)(=O)c2sccc2CN(C)C)n1 | – | 10 | 20 | 10
COc1nc(NC(=O)NS(=O)(=O)c2ccccc2COCCF)nc(OC)n1 | 2.5 | 40 | 40 | 10
COc1cc(OC)nc(NC(=O)NS(=O)(=O)c2sccc2COCC(Cl)(Cl)Cl)n1 | 1.25 | 2.5 | 5 | 2.5
COc1cc(OC)nc(NC(=O)NS(=O)(=O)c2sccc2Cn2cc(C(F)(F)F)ccc2=O)n1 | 40 | 40 | 40 | 40
COc1nc(NC(=O)NS(=O)(=O)c2scnc2COCCF)nc(OC)n1 | 2.5 | 2.5 | 2.5 | 2.5
COCc1ccsc1S(=O)(=O)NC(=O)Nc1nc(OC)cc(OC)n1 | 0.0781 | 0.0391 | – | 0.0195
CCOC(=O)COCc1ccsc1S(=O)(=O)NC(=O)Nc1nc(OC)cc(OC)n1 | 1.25 | – | – | –
COc1nc(NC(=O)NS(=O)(=O)c2sc3ccccc3c2COCCF)nc(OC)n1 | < 2.5 | <2.5 | <2.5 | <2.5
COc1cc(OC)nc(NC(=O)NS(=O)(=O)c2sccc2CSC)n1 | 0.156 | – | 0.313 | 0.0195
COc1cc(OC)nc(NC(=O)NS(=O)(=O)c2sccc2COCC(F)(F)F)n1 | 1.25 | 0.156 | 2.5 | 0.156
COc1nc(NC(=O)NS(=O)(=O)c2sccc2COCCF)nc(OC)n1 | 0.313 | – | 5 | –
COc1cc(C)nc(NC(=O)NS(=O)(=O)c2sccc2COCCF)n1 | 0.156 | 0.0391 | 0.0195 | 0.0391
COc1nc(C)nc(NC(=O)NS(=O)(=O)c2sccc2COCCF)n1 | 0.0781 | 0.313 | 0.313 | 0.625
COc1nc(NC(=O)NS(=O)(=O)c2c(COCCF)cnn2C)nc(OC)n1 | 1.25 | 0.313 | 0.625 | –
COc1nc(NC(=O)NS(=O)(=O)c2snc(C)c2COCCF)nc(OC)n1 | 2.5 | 1.25 | 1.25 | 1.25
COc1cc(OC)nc(NC(=O)NS(=O)(=O)c2sccc2COCCO)n1 | 0.313 | 0.625 | 0.625 | –
COc1cc(OC)nc(NC(=O)NS(=O)(=O)c2sccc2COCCCl)n1 | 0.625 | 0.156 | – | 0.156
